Patent US20260355329A1, “PRODRUG LINKER COMPOSITIONS AND METHODS OF USE” (priority 2023, published 2026)
Converted amounts (≈) assume the structure as drawn. “Also recorded” adds a separate entry of the source. Peptide text beside a SMILES is read from it. * marks the point of attachment. ACC = NC(=O)Cc1cc(=O)oc2cc(N*)ccc12

How the values were obtained:
[1] = Release of ACC from Ac-Linker-ACC conjugates in mouse serum (serum stability); type: in vitro ADME; conditions: role: substrate; 50% mouse serum, 8 h
Protocol: (§1) With the hit candidate in-hand, scarless cleavage was assessed with the turn-on fluorescent probe 7-amino-4-carbamoylmethylcoumarin (ACC), which only fluoresces when the ACC fluorophore is cleaved without an amino acid scar. To discover a scarless linker for LEHELGN (SEQ ID NO: 7), the following ACC conjugates (FIG. 9) were synthesized and cleavage rates were compared in 50% mouse serum and A. baumannii periplasmic extracts (FIGS. 10 and 11): Ac-LEHELGN-ACC (SEQ ID NO: 8), Ac-LEHELG-ACC (SEQ ID NO: 9), Ac-LEHEL-ACC (SEQ ID NO: 10), Ac-LEHE-ACC (SEQ ID NO: 11), Ac-LEH-ACC (SEQ ID NO: 12), Ac-LE-ACC, and Ac-L-ACC (note: Ac=acetyl).
To determine how each amino acid contributed to the selectivity of linker LEHELG (SEQ ID NO: 1), an ala scan was conducted. […] The cleavage rates of ala-substituted variants (P1-P6) were determined in mouse serum and in the periplasmic extracts from six strains of A. baumannii (FIG. 12).
Periplasmic extracts and mouse serum were not diluted prior to use in fluorescence assays and were allowed to undergo only one freeze-thaw cycle prior to use. […] The plate was sealed with a transparent polyolefin silicone film (Thermofisher™ Nuc™ Sealing Tape, 12-565-513) and placed in a plate reader at 37 °C with shaking at 225 rpm for 8 hours. […]

[2] = system: A. baumannii periplasmic extract; test: Release of ACC from Ac-Linker-ACC conjugates in A. baumannii periplasmic extract; type: biochemical; conditions: role: substrate, 8 h
Protocol: as §1
To determine how each amino acid contributed to the selectivity of linker LEHELG (SEQ ID NO: 1), an ala scan was conducted. Each position of the LEHELG (SEQ ID NO: 1) linker was substituted with a single alanine, the simplest amino acid containing a stereocenter, to create six variants. The P1 position is the amino acid directly adjacent to the cleavage site, which is conjugated to the ACC turn-on fluorophore. The cleavage rates of ala-substituted variants (P1-P6) were determined in mouse serum and in the periplasmic extracts from six strains of A. baumannii (FIG. 12). […]
Periplasmic extracts and mouse serum were not diluted prior to use in fluorescence assays and were allowed to undergo only one freeze-thaw cycle prior to use. […]

HL60 cells = test: Cell viability assay (MTT) in HL60 cells; type: cell-based; conditions: Homo sapiens, HL-60, 24 h, 0.07-10 μM, FIG. 14
Protocol: Cell Culture: HL-60 cells were cultured at 37 °C in a 5% CO2 atmosphere. The cells were grown in Iscove's Modified Dulbecco's Medium, supplemented with 20% fetal bovine serum (FBS) and 0.1% penicillin-streptomycin. Media was replaced every other day until cells reached the desired confluency.
Viability Assay: HL-60 cells (4×10^3) were seeded in a 96-well plate in cell culture media (100 μL) for 24 hours at the atmosphere stated above (5% CO2). After incubation, the cells were treated with 10 μL of vehicle or drug (0.07-10 μM, n=6) for 24 hours at 37 °C. Cell viability was assessed using MTT. MTT media (30 μL, 5 mg/mL) was added to each well for 2 hours and plate was centrifuged at 500×g for 5 minutes after, followed by media aspiration. The formazan crystals left were solubilized in DMSO and absorbance (540 nm) was measured using a microplate reader (SpectraMax M5). Data obtained was normalized to the vehicle to generate final values. The graph plotted in FIG. 14 is depicted as the mean±SEM vs. compound concentration.

K. pneumoniae MGH 78578 = test: MIC, broth microdilution; type: cell-based; conditions: Klebsiella pneumoniae, MGH78578, MH-II broth, 16 h, 37 °C, dipyridyl 200 μM for siderophore conjugates
Excerpt: (§2) For full conjugate synthesis, the HMM siderophore (see FIG. 3) was chosen due to its ability to actively transport antibiotics into diverse bacteria. Solithromycin was chosen as a warhead to determine the quality of the cleavable linker in bacteria and to provide insight into the ability of the conjugate to actively transport through membranes. Solithromycin is a broad-spectrum antibiotic (G^+ and […]), and conjugates with this warhead require cleavage for activity, except in cases where the conjugate is actively transported to the cytoplasm, where the intact conjugate engages the target ribosome. When the minimum inhibitory concentration (MIC, minimum amount of drug to inhibit growth) of solithromycin equals the MIC of its cleavable L-linker conjugate, it indicates quantitative drug release, assuming the non-cleavable D-linker conjugate is not active (Table 1). D-linkers are not cleaved by most proteases.
(§3) Broth and Agar Preparation: Mueller-Hinton II (MH-II, cation-adjusted) broth was prepared from solid MH-II (22 g) and MilliQ H2O (1 L), which was autoclaved in a presterilized 1-L glass bottle. The autoclaved MH-II media contained dipyridyl (DP, 200 μM) for MIC assays involving siderophore conjugates. MH-II agar plates were prepared from autoclaved MH-II (22 g), Bacto agar (17 g), and MilliQ water (1 L). The bacterial strains were obtained from glycerol stocks.
(§4) Bacteria Culture Preparation: Bacteria were streaked on MH-II agar plates from glycerol stocks. The streaked plates were placed in an incubator at 37 °C without shaking for 18-hours. A sterilized pipet tip was gently touched on the surface of a single colony and added to autoclaved MH-II broth (5 mL) in a sterilized 14-mL culture tube. The cultures were incubated for 18 hours at 37 °C with shaking at 215 rpm. The cultures were diluted 200-fold into autoclaved MH-II broth (4 mL) and incubated at 37 °C with shaking at 215 rpm for 3-5 hours, or until an OD 600 of 0.5 was achieved. An aliquot of the culture (1 mL) was transferred to a sterilized culture tube and diluted with filter-sterilized PBS (~7 mL) until an OD600 of 0.13-0.15 was achieved. An aliquot ([…]) of the cultures was then transferred into MH-II media (15-mL) to achieve a concentration of 1×10^5 cells/mL. The diluted cultures (90 μL/well) were then added to substrate (10 μL at the following concentrations: 640 μg/mL, 320 μg/mL, 160 μg/mL, 80 μg/mL, 40 μg/mL, 20 μg/mL, 10 μg/mL, and 0 μg/mL in sterilized 96-well plates to achieve a final substrate concentration of 64 μg/mL, 32 μg/mL, 16 μg/mL, 8 μg/mL, 4 μg/mL, 2 μg/mL, 1 μg/mL, and 0 μg/mL. The 96-well plates were then sealed with sterilized gas-permeable covers. The plates were incubated at 37 °C with shaking at 215 rpm for 16 hours. Each well condition was prepared in triplicate, and each MIC assay was repeated on a different day. The turbidity of each well was examined visually and the MIC was counted as the lowest concentration that lacked turbidity.

E. aerogenes ATCC 13048 = test: MIC, broth microdilution; type: cell-based; conditions: Klebsiella aerogenes, ATCC13048, MH-II broth, 16 h, 37 °C, dipyridyl 200 μM for siderophore conjugates
Excerpt: as §2, §3, §4

E. coli K12 MG1655 = test: MIC, broth microdilution; type: cell-based; conditions: Escherichia coli, MH-II broth, 16 h, 37 °C, dipyridyl 200 μM for siderophore conjugates
Excerpt: as §2, §3, §4

E. coli DCO = test: MIC, broth microdilution; type: cell-based; conditions: Escherichia coli, MH-II broth, 16 h, 37 °C, dipyridyl 200 μM for siderophore conjugates
Excerpt: as §2, §3, §4

A. baumannii 5075 = test: MIC, broth microdilution; type: cell-based; conditions: Acinetobacter baumannii, MH-II broth, 16 h, 37 °C, dipyridyl 200 μM for siderophore conjugates
Excerpt: as §2, §3, §4

S. enterica 14028s = test: MIC, broth microdilution; type: cell-based; conditions: Salmonella enterica, MH-II broth, 16 h, 37 °C, dipyridyl 200 μM for siderophore conjugates
Excerpt: as §2, §3, §4

A baumannii WC487 = test: MIC, broth microdilution; type: cell-based; conditions: Acinetobacter baumannii, MH-II broth, 16 h, 37 °C, dipyridyl 200 μM for siderophore conjugates
Excerpt: as §2, §3, §4

S. typhi ATCC 700931 = test: MIC, broth microdilution; type: cell-based; conditions: Salmonella enterica, MH-II broth, 16 h, 37 °C, dipyridyl 200 μM for siderophore conjugates
Excerpt: as §2, §3, §4

K. pneumoniae KPPR1 = test: MIC, broth microdilution; type: cell-based; conditions: Klebsiella pneumoniae, MH-II broth, 16 h, 37 °C, dipyridyl 200 μM for siderophore conjugates
Excerpt: as §2, §3, §4

With `CC(=O)N[C@@H](CC(C)C)C(=O)N[C@@H](CCC(=O)O)C(=O)N[C@@H](Cc1c[nH]cn1)C(=O)N[C@@H](CCC(=O)O)C(=O)N[C@@H](CC(C)C)C(=O)NCC(=O)Nc1ccc2c(CC(N)=O)cc(=O)oc2c1` [Ac-LEHELG-ACC, Ac-LEHELG(SEQ ID NO: 63)-ACC] (Ac-LEHELG-{ACC}) the “stability in serum / release of ACC in serum (in words)” value [1] was “Minimal release of ACC; also recorded: highest stability in mouse serum compared to all ala-substituted variants” and the “cleavage rate / release of ACC in periplasmic extract (in words)” value [2] was “cleaving rapidly”.

Molecule `CO[C@@]12[C@H](COC(N)=O)C3=C(C(=O)C(C)=C(N)C3=O)N1C[C@@H]1N[C@@H]12` [mitomycin C, reference compound] has an EC50 (HL60 cells) of 1000 nM.

In the case of `CC(=O)N[C@@H](CC(C)C)C(=O)N[C@@H](CCC(=O)O)C(=O)N[C@@H](C)C(=O)N[C@@H](CCC(=O)O)C(=O)N[C@@H](CC(C)C)C(=O)NCC(=O)Nc1ccc2c(CC(N)=O)cc(=O)oc2c1` [Ac-LEAELG-ACC, Ac-LEAELG(SEQ ID NO: 3)-ACC] (Ac-LEAELG-{ACC}), the “stability in serum / release of ACC in serum (in words)” value [1] is reported as “did not show a significant loss of serum stability relative to the parent peptide” and the “cleavage rate / release of ACC in periplasmic extract (in words)” value [2] is reported as “dramatically enhanced the cleavage rates in periplasmic extracts”.

`CC[C@H]1OC(=O)[C@@](C)(F)C(=O)[C@H](C)[C@@H](O[C@@H]2O[C@H](C)C[C@H](N(C)C)[C@H]2O)[C@](C)(OC)C[C@@H](C)C(=O)[C@H](C)[C@H]2N(CCCCn3cc(-c4cccc(N)c4)nn3)C(=O)O[C@]12C` [solithromycin] gave an MIC (K. pneumoniae MGH 78578) of 4 µM (≈ 3.38 µg/mL), an MIC (E. aerogenes ATCC 13048) of 8 µM (≈ 6.76 µg/mL) and an MIC (E. coli K12 MG1655) of under 1 µM. It also gave an MIC (E. coli DCO) of under 1 µM, an MIC (A. baumannii 5075) of 8 µM (≈ 6.76 µg/mL) and an MIC (S. enterica 14028s) of 8 µM (≈ 6.76 µg/mL). It also gave an MIC (A baumannii WC487) of 4 µM (≈ 3.38 µg/mL), an MIC (S. typhi ATCC 700931) of 8 µM (≈ 6.76 µg/mL) and an MIC (K. pneumoniae KPPR1) of 4 µM (≈ 3.38 µg/mL).
